Experimental data: PubChem BioAssay AID1552 (Sanford-Burnham Center for Chemical Genomics, 2009)
The source made the active and inactive calls. The rule behind the calls is not given here.

These compounds were tested against Ubiquitin-conjugating enzyme E2 N (Homo sapiens) (UniProt P61088) (assay: UBE2N binders by NMR, biophysical, purified protein (AID 1552)). Details: NMR binding to purified UBE2N.
Ubiquitin-conjugating enzyme E2 N (Homo sapiens), sequence (P61088 whole entry, looked up): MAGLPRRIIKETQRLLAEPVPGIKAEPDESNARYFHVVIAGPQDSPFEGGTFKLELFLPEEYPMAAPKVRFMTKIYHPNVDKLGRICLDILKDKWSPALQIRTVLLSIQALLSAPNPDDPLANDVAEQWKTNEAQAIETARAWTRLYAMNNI
`OCc1ccc2ncccc2c1` was tested, and the Kd was > 4 mM (inactive). With `COc1c(-c2coc3cc4c(cc3c2=O)CC(OC(C)=O)C(C)(C)O4)ccc2c1C=CC(C)(C)O2` (configuration not stated) the Kd was > 4 mM (inactive). `COc1ccc(/C=C2\SC(N)=NC2=O)cc1` was tested, and the Kd was > 4 mM (inactive). `CC1(C)C(=O)C=C[C@@]2(C)C1CC(=O)[C@]1(C)C2CC[C@@]2(C)[C@H](c3ccoc3)OC(=O)[C@H]3O[C@]321` (some centres not stated) was tested, and the Kd was > 4 mM (inactive). `Cc1ccc(CCC(N)=O)o1` was tested, and the Kd was > 4 mM (inactive). In the case of `OC1CCNC2CCCCC12` (configuration not stated), the Kd is reported as > 4 mM (inactive). With `O=c1c(O)c(-c2ccc(O)cc2O)oc2cc(O)cc(O)c12` the Kd was > 4 mM (inactive). With `Nc1ccccc1-c1nc2ccccc2[nH]1` the Kd was > 4 mM (inactive). In the case of `S=c1[nH]cnc2sccc12`, the Kd is reported as > 4 mM (inactive). With `Cc1noc(C)c1C(=O)Nc1ccccn1` the Kd was > 4 mM (inactive). `O=C(O)Cc1noc2ccccc12` was tested, and the Kd was > 4 mM (inactive). `N#CCN1C(=O)c2ccccc2S1(=O)=O` was tested, and the Kd was > 4 mM (inactive). For `CC(=O)Nc1nc(C)c(C(C)=O)s1`, the Kd was > 4 mM (inactive). With `COC(=O)CC1SC(=O)NC1=O` (configuration not stated) the Kd was > 4 mM (inactive). In the case of `COCC(=O)Nc1cccc2ccccc12`, the Kd is reported as > 4 mM (inactive). For `Cc1occc1C(=O)NCc1ccccn1`, the Kd was > 4 mM (inactive). For `CN(C)CCNC(CC(=O)Nc1ccccc1)C(=O)O` (configuration not stated), the Kd was > 4 mM (inactive). With `Cc1ccc2nc(SCC(=O)O)nc(C)c2c1` the Kd was > 4 mM (inactive). In the case of `NC(=O)CC1Nc2cccc3cccc(c23)NC1=O` (configuration not stated), the Kd is reported as > 4 mM (inactive). `NC(=O)Cn1nnc(-c2ccc(C(F)(F)F)cc2)n1` was tested, and the Kd was > 4 mM (inactive). For `COc1cc(O)c2c(=O)c(O)c(-c3ccc(O)c(O)c3)oc2c1`, the Kd was > 4 mM (inactive). With `CC(=O)Nc1ccc(NC(=O)/C=C\C(=O)O)cc1` the Kd was > 4 mM (inactive). In the case of `Cc1cc(C(=O)Nc2sc3c(c2C#N)CCC3)no1`, the Kd is reported as > 4 mM (inactive). In the case of `CC(=O)N1CCN(c2ccc(O)cc2)CC1`, the Kd is reported as > 4 mM (inactive). In the case of `NCc1cccc2c1OCCO2`, the Kd is reported as > 4 mM (inactive). With `Cc1ccccc1CSc1nncn1N` the Kd was > 4 mM (inactive). For `CC(=O)O[C@@H]1c2c(ccc3ccc(=O)oc23)OC(C)(C)[C@@H]1OC(=O)CC(C)C`, the Kd was > 4 mM (inactive). With `Cc1cc(=O)c2ccccc2n1CC(N)=O` the Kd was > 4 mM (inactive). With `CC(=O)Nc1cccc(N(C)S(C)(=O)=O)c1` the Kd was > 4 mM (inactive). In the case of `CC(C)CC(=O)Nc1c[nH]c(=O)[nH]c1=O`, the Kd is reported as > 4 mM (inactive). For `CN(C)c1ccc2c(=O)[nH][nH]c(=O)c2c1`, the Kd was > 4 mM (inactive). `CN(C)N1C(=O)C2CCCCC2C1=O` (configuration not stated) was tested, and the Kd was > 4 mM (inactive). For `COc1ccc2cnn(-c3ccccc3)c(=O)c2c1OC`, the Kd was > 4 mM (inactive). With `NC(=O)c1ccsc1NC(=O)c1ccco1` the Kd was > 4 mM (inactive). In the case of `NC1CS(=O)(=O)CC1O` (configuration not stated), the Kd is reported as > 4 mM (inactive). In the case of `Cc1ccnc(NS(=O)(=O)c2ccccc2)n1`, the Kd is reported as > 4 mM (inactive). In the case of `O=C(CC1NC(=O)NC1=O)Nc1ccccc1` (configuration not stated), the Kd is reported as > 4 mM (inactive). For `NC(CC(=O)O)c1ccccc1` (configuration not stated), the Kd was > 4 mM (inactive). With `CC(=O)c1c(C)nc(-c2cccs2)n1O` the Kd was > 4 mM (inactive). `CC(=O)c1cccc(NC(=O)C=C(C)C)c1` was tested, and the Kd was > 4 mM (inactive). With `CC1=C2C(=CO[C@H](C)[C@H]2C)C(=O)C(C(=O)O)=C1O` the Kd was > 4 mM (inactive). `Cc1onc(-c2ccccc2)c1C(=O)O` was tested, and the Kd was > 4 mM (inactive). In the case of `O=C1c2ccc(F)cc2C(=O)N1CO`, the Kd is reported as > 4 mM (inactive). In the case of `Nc1nncn1C(=O)c1c(Cl)cccc1Cl`, the Kd is reported as > 4 mM (inactive). In the case of `O=C(C1CCNCC1)N1CCCCCC1`, the Kd is reported as > 4 mM (inactive). In the case of `Cc1cc(=O)[nH]c(NCC(=O)O)n1`, the Kd is reported as > 4 mM (inactive). With `N=Nc1c(O)[nH]c2ccccc12` the Kd was > 4 mM (inactive). `COc1ccc(-c2ccc(=O)n(CC(N)=O)n2)cc1` was tested, and the Kd was > 4 mM (inactive). `O=C(O)CCc1ccc2c(c1)OCO2` was tested, and the Kd was > 4 mM (inactive). In the case of `COc1cccc2c(=O)n(CC(N)=O)ccc12`, the Kd is reported as > 4 mM (inactive). For `Cc1c(C)n2c(SCC(N)=O)nnc2[nH]c1=O`, the Kd was > 4 mM (inactive). `N/N=C/c1cccnc1` was tested, and the Kd was > 4 mM (inactive). In the case of `Fc1ccc(CN2CCCNCC2)cc1`, the Kd is reported as > 4 mM (inactive). In the case of `NS(=O)(=O)c1ccc(NC(=O)c2cccs2)cc1`, the Kd is reported as > 4 mM (inactive). `CC(=O)Nc1ccc(-c2nc(C)c(C(C)=O)n2O)cc1` was tested, and the Kd was > 4 mM (inactive). With `CCSc1nc2ccccc2[nH]1` the Kd was > 4 mM (inactive). With `Cc1cc(NC(=O)c2cccc(S(C)(=O)=O)c2)no1` the Kd was > 4 mM (inactive). `Nc1cc(=O)[nH]c(SCC(=O)NCc2ccccc2)n1` was tested, and the Kd was > 4 mM (inactive). `Nc1scc[n+]1CC(=O)[O-]` was tested, and the Kd was > 4 mM (inactive). In the case of `Cc1cc(F)c(F)c(C(=O)NC2CC2)c1Cl`, the Kd is reported as > 4 mM (inactive). With `Cc1nn(C)c(Cl)c1S(=O)(=O)N1CCOCC1` the Kd was > 4 mM (inactive). In the case of `Cc1sc2nc3n(c(=O)c2c1C)CCCS3`, the Kd is reported as > 4 mM (inactive). In the case of `O=C(CN1C(=O)c2cccc3cccc(c23)C1=O)NO`, the Kd is reported as > 4 mM (inactive). For `O=C(O)c1cccc2c1OCC2`, the Kd was > 4 mM (inactive). `NCc1ccc2c(c1)OCO2` was tested, and the Kd was > 4 mM (inactive). In the case of `CSc1nnnn1-c1cccc(O)c1`, the Kd is reported as > 4 mM (inactive). `CC(C)[C@@H]1CC[C@@H](C)C[C@H]1OC(=O)c1ccccc1` was tested, and the Kd was > 4 mM (inactive). For `COC(=O)[C@@H]1OC(=O)C2OC23[C@@]1(C)CCC1[C@@]2(C)CCC(=O)C(C)(C)C2C[C@@H](OC(C)=O)[C@]13C` (some centres not stated), the Kd was > 4 mM (inactive). With `O=c1nc(N2CCCCC2)nc2n1CCO2` the Kd was > 4 mM (inactive). In the case of `NC(=O)C1(S(=O)(=O)c2ccccc2)CC1`, the Kd is reported as > 4 mM (inactive). With `O=C(c1ncc[nH]1)c1ccccc1C(=O)N1CCOCC1` the Kd was > 4 mM (inactive). `COc1cccc(=O)c2c(C)n(C)c(C)c12` was tested, and the Kd was > 4 mM (inactive). In the case of `CC(C)Oc1ccc(NC(N)=O)cc1`, the Kd is reported as > 4 mM (inactive). For `OCc1cc2ccccc2o1`, the Kd was > 4 mM (inactive). `Cc1cc2ncc(C(=O)Nc3ccccc3)c(C)n2n1` was tested, and the Kd was > 4 mM (inactive). `O=C(Nc1nnc(C(F)(F)F)s1)c1cccnc1` was tested, and the Kd was > 4 mM (inactive). `CN(C)C(=O)CSc1nc2ccccc2c(=O)[nH]1` was tested, and the Kd was > 4 mM (inactive). With `CC(=O)NC12CC3CC(CC(O)(C3)C1)C2` the Kd was > 4 mM (inactive). For `Cc1noc(-c2ccccc2)c1C(=O)O`, the Kd was > 4 mM (inactive). In the case of `COc1cc(-c2coc3cc(OC)c(OC)c(OC)c3c2=O)cc(OC)c1OC`, the Kd is reported as > 4 mM (inactive). In the case of `N#Cc1cnn(Cc2ccc(Cl)cc2)c1N`, the Kd is reported as > 4 mM (inactive). `Cn1nnc2cc(CO)ccc21` was tested, and the Kd was > 4 mM (inactive). `CNC(=O)c1cc(S(=O)(=O)N(C)C)ccc1Cl` was tested, and the Kd was > 4 mM (inactive). `CC1(C)CC2(C)N(N)C(=O)CN2C(=S)N1` (configuration not stated) was tested, and the Kd was > 4 mM (inactive). In the case of `Cc1nnc(SCC(=O)NCc2ccccc2)[nH]c1=O`, the Kd is reported as > 4 mM (inactive). For `CSc1nnc2[nH]c(=O)cc(N)n12`, the Kd was > 4 mM (inactive). In the case of `c1ccc2c(NC3=NCCS3)cccc2c1`, the Kd is reported as > 4 mM (inactive). In the case of `Cc1cc(=O)cc(C)n1-c1ccccc1N`, the Kd is reported as > 4 mM (inactive). `NCc1oc(-c2ccccc2)cc1C(=O)O` was tested, and the Kd was > 4 mM (inactive). With `Nc1ccc(C2SCCS2)cc1` the Kd was > 4 mM (inactive). For `CCc1noc(C)c1C(=O)N1CCCC1`, the Kd was > 4 mM (inactive). With `Nc1cc(N)nc(SCc2ccccc2)n1` the Kd was > 4 mM (inactive). For `O=C(O)C(CO)c1ccccc1` (configuration not stated), the Kd was > 4 mM (inactive). In the case of `COc1cc(O)c2c(=O)cc(-c3ccc(OC)c(-c4c(O)cc(O)c5c(=O)cc(-c6ccc(O)cc6)oc45)c3)oc2c1`, the Kd is reported as > 4 mM (inactive). `Cc1nc(-c2cc(C(=O)O)no2)cs1` was tested, and the Kd was > 4 mM (inactive). With `Cc1nn(-c2ccccc2)nc1C(N)=O` the Kd was > 4 mM (inactive). With `C=C(C)[C@H]1Cc2c(ccc3c2O[C@@H]2COc4cc(OC)c(OC)cc4[C@@H]2C3=O)O1` the Kd was > 4 mM (inactive). With `O=C(CSc1ncnc2ccccc12)NCCCO` the Kd was > 4 mM (inactive). `c1ccc(CCc2nc(-c3ccccn3)no2)cc1` was tested, and the Kd was > 4 mM (inactive). With `CC1(C)SCC(C(=O)O)N1C=O` (configuration not stated) the Kd was > 4 mM (inactive). With `Cc1nn(-c2ccccc2)c(Cl)c1C(N)=O` the Kd was > 4 mM (inactive). With `COc1ccc(-c2noc(-c3ccco3)n2)cc1OC` the Kd was > 4 mM (inactive). For `Cn1c(=O)[nH]c(=O)c2c1ncn2CCN1CCCCC1`, the Kd was > 4 mM (inactive). With `O=C1N=c2ccccc2=C1c1[nH]c(=S)[nH]c1O` the Kd was > 4 mM (inactive). With `NC(=O)Cn1nc2c3c(cccc3c1=O)-c1ccccc1-2` the Kd was > 4 mM (inactive). With `Cn1ncc(NC(=O)Nc2ccc(F)cc2F)c1C(N)=O` the Kd was > 4 mM (inactive). With `Nc1cc(F)ccc1-n1ccnc1` the Kd was > 4 mM (inactive). In the case of `O=C(Nc1cccnc1)c1c(F)cccc1F`, the Kd is reported as > 4 mM (inactive). With `CC(=O)NC(=S)Nc1ccc(S(N)(=O)=O)cc1` the Kd was > 4 mM (inactive). In the case of `Nc1nc2[nH]c(=O)c(=O)[nH]c2c(=O)[nH]1`, the Kd is reported as > 4 mM (inactive). In the case of `Cc1ccc(Nc2nnns2)cc1C`, the Kd is reported as > 4 mM (inactive). For `NC(=O)Cn1nc(-c2ccc(F)cc2)ccc1=O`, the Kd was > 4 mM (inactive). `Nc1ccc(F)cc1F` was tested, and the Kd was > 4 mM (inactive). For `Cc1nnsc1C(=O)Nc1ccc(C(N)=O)cc1`, the Kd was > 4 mM (inactive). With `Cc1cc(O)c(C=O)c(O)c1C(=O)O` the Kd was > 4 mM (inactive). In the case of `COc1ccc2c(C)cc(=O)oc2c1`, the Kd is reported as > 4 mM (inactive). For `Cc1ccc(=O)[nH]c1`, the Kd was > 4 mM (inactive). With `CC(=O)NC12CC3CC(C)(C1)CC(NC(C)=O)(C3)C2` the Kd was > 4 mM (inactive). In the case of `Cn1c(O)c(/C=C2\C=CC=N2)c(=O)[nH]c1=O`, the Kd is reported as > 4 mM (inactive). `OCc1cccc2nonc12` was tested, and the Kd was > 4 mM (inactive). `C[C@H]1O[C@@H](O[C@H]2[C@@H](O)C[C@H](O[C@H]3[C@@H](O)C[C@H](O[C@H]4CC[C@]5(C)C6CC[C@]7(C)[C@@H](C8=CC(=O)OC8)CC[C@]7(O)C6CC[C@@H]5C4)O[C@@H]3C)O[C@@H]2C)C[C@H](O)[C@@H]1O` (some centres not stated) was tested, and the Kd was > 4 mM (inactive). `O=CN1CCN(C(=O)c2ccc(F)cc2)CC1` was tested, and the Kd was > 4 mM (inactive).
